Results reported in patent US20100203021A1, “PROVISION OF NEW CARDIOMYOCYTE PROGENITOR CELLS AND CARDIOMYOCYTES DERIVED THEREFROM” (LEAD PHARMA CEL MODELS IP B.V., priority 2007, published 2010).

Legend:
Assay type in all cases: cell-based, human
hCMPCs = assay: Differentiation of hCMPCs into cardiomyocytes (5-azacytidine, ascorbic acid, TGFβ); RT-PCR, Western blot, α-actinin immunofluorescence
Description: For a cell type to be suitable for cardiomyocyte replacement therapies, it should not only be able to proliferate but also differentiate efficiently into cardiomyocytes. To study the capacity of the hCMPCs of the invention to differentiate into cardiomyocytes, cells were plated at 10^5 per cm^2 in differentiation medium containing ascorbic acid and treated with 5-azacytidine (which is a demethylating agent).
(§1) To determine whether CMPCs of the invention were capable of responding to TGFβ ligand we examined their ability to phosphorylate smad proteins. TGFβ exerts its effect by binding to a complex of type I and type II receptor and phosphorylating Smads^30. TGFβ phosphorylates Smad2 while BMP phosphorylates Smad1. […] To examine the effect of TGFβ on cardiomyocyte differentiation, hCMPCs were plated at 2×10^4 cells per cm^2 in differentiation medium, treated with 5-aza for 24 hours and cultured for up to 3 weeks in differentiation medium supplemented with TGFβ (1 ng/ml).
To induce differentiation, cells were treated with 5 μM 5′-azacytidine (Sigma) for 72 hours in differentiation medium (Iscove's Modified Dulbecco's Medium/HamsF12 (1:1) (Gibco)) supplemented with L-Glutamine (Gibco), 2% horse serum, non-essential amino acids, Insulin-Transferrin-Selenium supplement, and 10^−4 M Ascorbic Acid (Sigma)). After induction, the medium was changed every 3 days.
For TGFβ treatment, CMPCs were cultured in differentiation medium, stimulated with 5 μM 5′-azacytidine (Sigma) and 1 ng/ml TGFβ1 (Sigma) added 24 hours later. The medium was changed every 3 days.
RNA was isolated using of Trizol (Invitrogen, Breda, The Netherlands) and reverse transcribed using oligo-dT Superscript 3 (Invitrogen). The PCR reactions started with 2 min at 94° C. followed by 35 cycles of: 15 s at 94° C., 30 s at 55° C. and 45 s at 72° C. Products were analyzed on ethidium bromide-stained 1% agarose gel. β-tubulin or β-actin were used as RNA input control.
Coverslips with cultured cells were rinsed in serum free medium, fixed in methanol (−20° C.) or 4% paraformaldehyde, washed with PBS and permeabilized with 0.2% Triton X-100/PBS. Non-specific binding of antibodies was blocked with 2% bovine serum albumin (BSA). Incubation with primary antibodies was performed overnight in PBS/10% normal goat serum (NGS). Antibodies used recognized GATA-4 (Santa Cruz), Islets-1 (Hybridoma Bank), Cx40 (Chemicon), Cx43 (Zymed), Cx45 (kindly provided by Dr. T. H. Steinberg, Washington University, St. Louis, USA), α-actinin (Sigma), Troponin I (Chemicon) desmin (Sanbio), titin (Sigma), MLC2v (Alexis), β-MHC (kindly provided by Dr. A. F. M. Moorman, AMC Amsterdam, Netherlands), N-cadherin (Sigma) and ZO-1 (Zymed). Immunolabeling was performed using Texas Red (TR)- or fluorescein isothiocyanate (FITC)-conjugated secondary antibodies (Jackson Laboratories). All incubation steps were performed at room temperature and in between all incubation steps, cells were washed with PBS. Finally, coverslips were mounted in Vectashield (Vector Laboratories) and examined with a Nikon Optiphot-2 light microscope equipped for epifluorescence.
Western blot analysis was performed as described previously^35. Detection was by ECL (Amersham). […]

Smad2 = assay: Western blot for TGFβ induced Smad2 phosphorylation in CMPCs; settings: 1 ng/ml TGFβ, Western blot α-pSmad2
Description: as §1
(§2) FIG. 3: (A) Western blot analysis on protein samples isolated from CMPCs stimulated without or with 1 ng/ml TGFβ or 25 ng/ml BMP-6 and probed with α-pSmad1 or α-pSmad2. Asterisk indicates an non-specific band showing equal loading. B) Semi-quantitative RT-PCR on RNA isolated from CMPCs stimulated without or with 1 ng/ml TGFβ for the indicated days probed for the expression of the early cardiac transcription factors Nkx2.5 and Mef2C, the contractile proteins cardiac actin, cardiac Troponin I, desmin, ANP and MLC2v. β-actin was used as a control for equal RNA input. C) Western blot analysis on protein samples from CMPCs stimulated without or with 1 ng/ml TGF for the indicated days, probed for Nkx2.5 or α-actinin. […] Counterstaining of nuclei was performed using DAPI. Bar=50 μm. […]

CMPC = assay: In vitro angiogenesis assay: tube formation by CMPC on Matrigel/ECMatrix; settings: CMPCs on Matrigel, addition of VEGF
From the text: We have also established differentiation of CMPCs of the invention into tubular vascular structures (angiogenesis) on Matrigel, said “tubular vascular structures” which are sometimes also denoted herein as “tubular structures” containing aligned endothelial cells encircled by smooth muscle cells. […] The formation of these newly formed capillary tubes can be visualised for example by staining α-SMA (a smooth muscle actin) on smooth muscle cells and/or PECAM-1 (platelet endothelial cell adhesion molecule-1, CD31) on endothelial cells (see also appended Example 8). Antibodies which can be used in this regard are exemplified in the following: SMA antibody: AB5694 from abcam, clone 1A4, Sigma, cat. Number: A2547, or Dako, cat. Number M08510. Endothelial cells: PECAM-1 clone 9G11 or CD34 clone Qbend/10 form Biogenex or CD31 from Sigma and ve-cadherin from Santa Cruz.
In this case the assay is set up in order to test the influence of diverse compounds (i.e. chemical compounds or miRNA etc.) on tube formation by CMPC (cardio mycocyte progenitor cells). In order for these cells to form tubes these cells have to differentiate into smooth muscle cells and endothelial cells.
The formation of these newly formed capillary tubes is visualised by staining α-SMA (α smooth muscle actin) on smooth muscle cells and PECAM-1 (platelet endothelial cell adhesion molecule-1, CD31) on endothelial cells. […]

Smad1 = assay: Western blot for BMP induced Smad1 phosphorylation in CMPCs; settings: 25 ng/ml BMP-6, Western blot α-pSmad1
Description: as §1, §2

## Nc1ncn([C@@H]2O[C@H](CO)[C@@H](O)[C@H]2O)c(=O)n1 [5-azacytidine, reference compound]
hCMPCs; hCMPCs 10^5 per cm^2, differentiation medium with ascorbic acid, three weeks after treatment
  differentiation of hCMPCs into cardiomyocytes (beating areas): spontaneously beating areas were observed

## TGFβ: TGFβ1 (Sigma), 1 ng/ml, added to differentiation medium
hCMPCs; CMPCs, 7 days of culture in the presence of TGFβ 1 ng/ml
  expression of Nkx2.5 and α-actinin (Western blot): increased dramatically
hCMPCs; hCMPCs, 5-aza 24 hours, then TGFβ 1 ng/ml, immunofluorescent staining
  percentage of α-actinin positive cells: ~100%
hCMPCs; hCMPCs, 5-aza, TGFβ 1 ng/ml, undetectable in its absence
  expression of cardiac genes Troponin-I, ANP, cardiac-actin and desmin (RT-PCR): already observed 7 days after the initiation of differentiation
hCMPCs; hCMPCs, 5-aza, TGFβ 1 ng/ml, without TGFβ only after 3 weeks
  MLC2v expression (RT-PCR): already present after two weeks
Smad2
  Smad2 phosphorylation: TGFβ induced Smad2 phosphorylation

## VEGF
CMPC
  formation of capillary tubes: can be induced

B1: BMP: bone morphogenetic protein; 25 ng/ml BMP-6 in FIG. 3A (protein, UniProt P22004 375-513, looked up)
Bone morphogenetic protein 6: SASSRRRQQSRNRSTQSQDVARVSSASDYNSSELKTACRKHELYVSFQDLGWQDWIIAPKGYAANYCDGECSFPLNAHMNATNHAIVQTLVHLMNPEYVPKPCCAPTKLNAISVLYFDDNSNVILKKYRNMVVRACGCH
Smad1
  Smad1 phosphorylation: clear BMP induced Smad1 phosphorylation
